Test results as given in patent US11040981B2, “Pyrrolotriazine compounds and methods of inhibiting TAM kinases” (Syros Pharmaceuticals, Inc., priority 2017, dated 2021).
pIC50: −log10 of the molar value.

Key:
FLT3 = target: T1, FLT3 (Homo sapiens, UniProt P36888); experiment: TR-FRET kinase activity assay, FLT3; type: biochemical; conditions: ATP at Km, 60 minutes
T1 sequence (P36888 27-993): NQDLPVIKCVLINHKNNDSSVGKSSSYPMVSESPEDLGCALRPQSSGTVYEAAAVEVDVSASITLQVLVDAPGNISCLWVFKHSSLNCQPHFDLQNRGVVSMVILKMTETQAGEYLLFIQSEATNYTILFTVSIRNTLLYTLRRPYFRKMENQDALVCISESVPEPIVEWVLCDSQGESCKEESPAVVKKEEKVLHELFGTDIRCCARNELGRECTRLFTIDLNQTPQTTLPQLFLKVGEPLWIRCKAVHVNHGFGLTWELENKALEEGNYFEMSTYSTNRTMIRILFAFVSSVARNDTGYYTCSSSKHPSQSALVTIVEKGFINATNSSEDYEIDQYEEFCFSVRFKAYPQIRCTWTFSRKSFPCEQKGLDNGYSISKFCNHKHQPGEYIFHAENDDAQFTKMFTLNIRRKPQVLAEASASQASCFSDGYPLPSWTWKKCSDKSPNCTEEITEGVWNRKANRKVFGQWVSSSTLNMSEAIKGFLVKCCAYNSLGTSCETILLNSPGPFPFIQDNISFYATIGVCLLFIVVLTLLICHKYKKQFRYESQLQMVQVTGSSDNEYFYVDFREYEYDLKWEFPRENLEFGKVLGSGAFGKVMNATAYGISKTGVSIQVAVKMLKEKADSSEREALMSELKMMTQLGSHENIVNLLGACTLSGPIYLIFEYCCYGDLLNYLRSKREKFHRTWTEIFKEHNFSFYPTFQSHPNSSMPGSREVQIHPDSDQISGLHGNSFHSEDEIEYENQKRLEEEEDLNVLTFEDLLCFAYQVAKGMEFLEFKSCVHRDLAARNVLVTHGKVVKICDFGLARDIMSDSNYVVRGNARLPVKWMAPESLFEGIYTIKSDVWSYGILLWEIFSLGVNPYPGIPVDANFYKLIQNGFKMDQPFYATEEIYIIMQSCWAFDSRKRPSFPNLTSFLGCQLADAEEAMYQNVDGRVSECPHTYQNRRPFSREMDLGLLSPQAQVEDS
How it was run: (§1)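 Compounds were tested against each kinase with ATP set at its own Km and a labelled tyrosine peptide substrate. Following one hour at room temperature in buffer containing 10 mM MgCl2 and 1 mM DTT, phosphorylated product was detected by Europium antibody TR-FRET after EDTA quench, and IC50 values were calculated.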

TYRO3 = target: T2, TYRO3 (Homo sapiens, UniProt Q06418); experiment: TR-FRET kinase activity assay, TYRO3; type: biochemical; conditions: ATP at Km, 60 minutes
T2 sequence (Q06418 41-890): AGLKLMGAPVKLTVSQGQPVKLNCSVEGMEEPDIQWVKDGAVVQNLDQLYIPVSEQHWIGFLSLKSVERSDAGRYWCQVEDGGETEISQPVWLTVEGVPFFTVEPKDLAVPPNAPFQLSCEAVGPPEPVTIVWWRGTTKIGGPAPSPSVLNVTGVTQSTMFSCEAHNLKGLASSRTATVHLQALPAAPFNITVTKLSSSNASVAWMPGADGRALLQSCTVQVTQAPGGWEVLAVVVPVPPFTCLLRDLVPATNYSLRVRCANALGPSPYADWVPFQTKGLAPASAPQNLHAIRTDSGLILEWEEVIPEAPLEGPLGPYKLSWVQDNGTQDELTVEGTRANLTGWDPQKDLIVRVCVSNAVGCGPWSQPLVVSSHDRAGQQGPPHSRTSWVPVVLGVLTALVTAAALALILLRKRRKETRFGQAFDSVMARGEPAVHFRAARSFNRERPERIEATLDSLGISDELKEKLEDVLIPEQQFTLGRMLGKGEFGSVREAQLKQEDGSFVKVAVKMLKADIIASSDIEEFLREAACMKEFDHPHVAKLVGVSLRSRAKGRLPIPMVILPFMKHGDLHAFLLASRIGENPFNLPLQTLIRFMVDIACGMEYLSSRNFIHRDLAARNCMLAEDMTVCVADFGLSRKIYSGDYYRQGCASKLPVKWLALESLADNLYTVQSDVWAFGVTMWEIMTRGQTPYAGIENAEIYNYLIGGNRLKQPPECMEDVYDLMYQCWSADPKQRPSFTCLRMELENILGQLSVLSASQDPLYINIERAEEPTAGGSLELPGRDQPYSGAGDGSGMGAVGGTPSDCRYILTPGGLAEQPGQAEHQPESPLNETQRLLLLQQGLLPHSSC
How it was run: as §1

Row | SMILES | pIC50 (FLT3) | pIC50 (TYRO3)
1 | CC(CC(F)F)Nc1ncc2c(-c3ccc(CN4CCN(C)CC4)cc3)cc(C3CCC(O)CC3)n2n1 (stereo not drawn) [Compound 352] | ≥ 7.00 | ≥ 7.00
2 | COC[C@H](C)Nc1ncc2c(-c3cnn(C4COC4)c3)cc(C3CCC(=O)CC3)n2n1 [Compound 406] | 6.00 to 7.00 | ≥ 7.00
3 | COC[C@H](C)Nc1ncc2c(-c3cnn([C@H]4CCNC4=O)c3)cc([C@H]3CC[C@H](O)CC3)n2n1 [Compound 348] | 6.00 to 7.00 | ≥ 7.00
